For one assay, the target named is D(1A) dopamine receptor (Homo sapiens, UniProt P21728). Nature of the assay: Antagonist activity at dopamine D1 receptor. The class given is functional.
For the next assay, the target named is D(2) dopamine receptor (Homo sapiens, UniProt P14416). Description: Antagonist activity at dopamine D2 receptor. The class given is functional.
Chain of D(2) dopamine receptor (P14416 whole entry): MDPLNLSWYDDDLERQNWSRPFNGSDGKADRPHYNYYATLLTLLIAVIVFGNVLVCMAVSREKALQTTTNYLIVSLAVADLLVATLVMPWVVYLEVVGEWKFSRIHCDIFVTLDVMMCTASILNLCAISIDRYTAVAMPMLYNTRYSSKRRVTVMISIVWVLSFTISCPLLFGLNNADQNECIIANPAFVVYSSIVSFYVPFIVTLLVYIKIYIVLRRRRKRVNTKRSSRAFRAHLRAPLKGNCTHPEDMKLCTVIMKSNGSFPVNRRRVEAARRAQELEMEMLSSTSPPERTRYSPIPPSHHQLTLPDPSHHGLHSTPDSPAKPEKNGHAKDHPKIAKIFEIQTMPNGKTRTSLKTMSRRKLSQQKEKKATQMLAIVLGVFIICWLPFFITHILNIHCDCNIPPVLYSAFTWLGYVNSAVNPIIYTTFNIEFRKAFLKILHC

Chain of D(1A) dopamine receptor (P21728 whole entry): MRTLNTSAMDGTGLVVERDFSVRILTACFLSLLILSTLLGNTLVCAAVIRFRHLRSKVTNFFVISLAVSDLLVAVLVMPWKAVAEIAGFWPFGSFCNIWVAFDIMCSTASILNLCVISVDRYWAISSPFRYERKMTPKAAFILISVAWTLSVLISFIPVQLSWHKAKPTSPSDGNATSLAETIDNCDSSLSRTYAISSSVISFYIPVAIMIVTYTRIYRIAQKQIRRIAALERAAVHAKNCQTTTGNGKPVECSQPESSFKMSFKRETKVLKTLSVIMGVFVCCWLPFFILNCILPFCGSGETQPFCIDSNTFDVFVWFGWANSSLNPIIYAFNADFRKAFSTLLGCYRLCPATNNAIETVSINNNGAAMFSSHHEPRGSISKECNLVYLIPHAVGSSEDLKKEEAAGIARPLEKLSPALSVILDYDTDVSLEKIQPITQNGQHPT

For the compound `COc1cc2c(cc1O)CN1CCc3cc(OC)c(O)cc3[C@@H]1C2`, the EC50 at D(1A) dopamine receptor was found to be 0.0056 µM; on D(2) dopamine receptor, 56 µM.

`COc1cc2c(cc1O)CN1CCc3cc(OC)c(O)cc3[C@H]1C2`: the results for the EC50 on D(1A) dopamine receptor and on D(2) dopamine receptor were more than 100 µM and 14 µM, respectively.

In general, EC50 refers to the concentration giving half of the maximal effect. A higher EC50 goes with weaker potency.

These data come from ChEMBL document CHEMBL1949652, “First enantioselective syntheses of the dopamine D1 and D2 receptor modulators, (+)- and (-)-govadine” (Bioorg Med Chem Lett, 2012).
